Assay results as given in US20230285402A1, “Compositions and Methods of Modulating Short-Chain Dehydrogenase Activity” (BOARD OF REGENTS OF THE UNIVERSITY OF TEXAS SYSTEM, priority 2013, published 2023).

How the values were obtained:
FVB mice = test: Liver regeneration after partial hepatectomy, FVB mice, SW033291 5 mg/kg IP bid; format: in vivo, mouse
15-PGDH mRNA = 15-PGDH mRNA by real-time PCR in colon cancer cell lines; format: cell-based
Excerpt: In these studies parental cell lines (not containing the 15-PGDH-luciferase reporter) are employed.

A549 cells = test: Cellular toxicity by CellTiter-Glo; format: cell-based; settings: concentrations of up to 10 μM; 24 hours
Procedure: FIGS. 38(A-C) show assays of cellular toxicity on A549 cells at 24 hours of 15-PGDH inhibitors as assayed by CellTiter-Glo measurement.

C57BL/6J mice [1] = test: Survival of 11Gy irradiated C57BL/6J mice given marrow allograft, SW033291 5 mg/kg IP bid for 21 days, 3 mice per condition; format: in vivo, mouse
Excerpt: The experimental design is depicted in FIG. 50.
Under the conditions of the mouse colony during this study, control mice receiving 100,000-500,000 cells are all dead between days 4-13 of study. […] Such activity would be of particular utility in settings, such as transplantation with umbilical cord stem cells, in which donor cell numbers are limited.

CXCL12 = test: Gene expression in bone marrow cells of treated mice: CXCL12; format: in vivo, mouse; settings: 10 mg/kg IP twice daily, 5 doses
Procedure: 2 hours following the last dose bone marrow is harvested and sorted into SKL marked cells that are hematopoietic stem cell enriched and into CD45(−) cells that are bone marrow stroma cells. RNA was extracted and gene expression determined relative to levels in mice injected with vehicle control.

bone marrow = test: Hematopoietic colonies from wild-type mouse bone marrow treated ex vivo; format: cell-based; settings: 0.5 μM, ex vivo on ice 2 hours
Excerpt: Treated marrow is again then plated into methylcellulose for counting of hematopoietic colonies.

C57BL/6J mice [2] = test: Liver regeneration after partial hepatectomy, C57BL/6J mice, SW033291 5 mg/kg IP; format: in vivo; settings: 5 mg/kg IP bid; one mouse each
NSG mice = test: Homing of CFSE labeled human umbilical cord blood buffy coat cells in NSG mice; settings: in vivo
Procedure: FIG. 93 illustrates a schema of an experiment in which immune deficient NSG mice are lethally irradiated (IR) and 12 hours later receive a transplant with CFSE dye labeled buffy coat cells from human umbilical cord blood (UCB), and number of transplanted cells that home and survive in the bone marrow of the recipient mice are then determined by FACS at 16 hours post-transplant. In different arms of the experiment mice are treated with vehicle or with SW033291. Drugs are administered following radiation, following the transplant, and again at 8 hours after the transplant.

FVB male mice = test: Dextran sodium sulfate (DSS) induced colitis, FVB male mice, SW033291 5 mg/kg IP twice daily; format: in vivo, mouse
C57BL/6J female mice = test: Survival of mice after whole body irradiation, SW033291 5 mg/kg IP; format: in vivo, mouse; settings: for number of mice surviving: 9 Gy
mice = test: Homing of CFSE labeled donor bone marrow cells in lethally irradiated mice; format: in vivo, mouse; settings: 10 mg/kg IP
Procedure: Drugs are administered following radiation, following the transplant, and again at 8 hours after the transplant.

[3] = tested on: 15-PGDH-luciferase fusion reporter in V9m, LS174T and V503 cells; test: 15-PGDH-luciferase fusion reporter induction in colon cancer cell lines; format: cell-based; settings: V9m, LS174T, V503
[4] = 21 day toxicity study in FVB mice, daily weights; format: in vivo, mouse; settings: 5 mg/kg IP twice daily for 21 days

## CCCC[S+]([O-])c1sc2nc(-c3cccs3)cc(-c3ccccc3)c2c1N (centres unmarked) [SW033291, 2-(butylsulfinyl)-4-phenyl-6-(thiophen-2-yl)thieno[2,3-b]pyridin-3-amine]
FVB mice; post-operative day 2
  increase in median S-phase (BrdU positive) cells: greater than 2 fold
FVB mice; post-operative day 7, dosing from 1 hour before surgery
  greater liver weight than control: approximately 25%
15-PGDH mRNA; V503 cells
  15-PGDH mRNA: slight increase in 15-PGDH mRNA
15-PGDH mRNA; treated colon cancer cell lines
  15-PGDH mRNA levels: do not in general alter 15-PGDH mRNA levels
A549 cells
  effect on CellTitre-Glo levels: No effect
C57BL/6J mice [1]; Day 0, 1 × 10^5 cells
  Mouse survival (number surviving): 3
C57BL/6J mice [1]; Day 0, 2 × 10^5 cells
  Mouse survival (number surviving): 3
C57BL/6J mice [1]; Day 0, 5 × 10^5 cells
  Mouse survival (number surviving): 3
C57BL/6J mice [1]; Day 1, 1 × 10^5 cells
  Mouse survival (number surviving): 3
C57BL/6J mice [1]; Day 1, 2 × 10^5 cells
  Mouse survival (number surviving): 3
C57BL/6J mice [1]; Day 1, 5 × 10^5 cells
  Mouse survival (number surviving): 3
C57BL/6J mice [1]; Day 2, 1 × 10^5 cells
  Mouse survival (number surviving): 3
C57BL/6J mice [1]; Day 2, 2 × 10^5 cells
  Mouse survival (number surviving): 3
C57BL/6J mice [1]; Day 2, 5 × 10^5 cells
  Mouse survival (number surviving): 3
C57BL/6J mice [1]; Day 3, 1 × 10^5 cells
  Mouse survival (number surviving): 3
C57BL/6J mice [1]; Day 3, 2 × 10^5 cells
  Mouse survival (number surviving): 3
C57BL/6J mice [1]; Day 3, 5 × 10^5 cells
  Mouse survival (number surviving): 3
C57BL/6J mice [1]; Day 4, 1 × 10^5 cells
  Mouse survival (number surviving): 2
C57BL/6J mice [1]; Day 4, 2 × 10^5 cells
  Mouse survival (number surviving): 3
C57BL/6J mice [1]; Day 4, 5 × 10^5 cells
  Mouse survival (number surviving): 3
C57BL/6J mice [1]; Day 5, 1 × 10^5 cells
  Mouse survival (number surviving): 1
C57BL/6J mice [1]; Day 5, 2 × 10^5 cells
  Mouse survival (number surviving): 3
C57BL/6J mice [1]; Day 5, 5 × 10^5 cells
  Mouse survival (number surviving): 3
C57BL/6J mice [1]; Day 6, 1 × 10^5 cells
  Mouse survival (number surviving): 0
C57BL/6J mice [1]; Day 6, 2 × 10^5 cells
  Mouse survival (number surviving): 2
C57BL/6J mice [1]; Day 6, 5 × 10^5 cells
  Mouse survival (number surviving): 3
C57BL/6J mice [1]; Day 7, 2 × 10^5 cells
  Mouse survival (number surviving): 2
C57BL/6J mice [1]; Day 7, 5 × 10^5 cells
  Mouse survival (number surviving): 3
C57BL/6J mice [1]; Day 8, 2 × 10^5 cells
  Mouse survival (number surviving): 2
C57BL/6J mice [1]; Day 8, 5 × 10^5 cells
  Mouse survival (number surviving): 2
C57BL/6J mice [1]; Day 9, 2 × 10^5 cells
  Mouse survival (number surviving): 2
C57BL/6J mice [1]; Day 9, 5 × 10^5 cells
  Mouse survival (number surviving): 2
C57BL/6J mice [1]; Day 10, 2 × 10^5 cells
  Mouse survival (number surviving): 2
C57BL/6J mice [1]; Day 10, 5 × 10^5 cells
  Mouse survival (number surviving): 2
C57BL/6J mice [1]; Day 11, 2 × 10^5 cells
  Mouse survival (number surviving): 2
C57BL/6J mice [1]; Day 11, 5 × 10^5 cells
  Mouse survival (number surviving): 2
C57BL/6J mice [1]; Day 12, 2 × 10^5 cells
  Mouse survival (number surviving): 1
C57BL/6J mice [1]; Day 12, 5 × 10^5 cells
  Mouse survival (number surviving): 2
C57BL/6J mice [1]; Day 13, 2 × 10^5 cells
  Mouse survival (number surviving): 0
C57BL/6J mice [1]; Day 13, 5 × 10^5 cells
  Mouse survival (number surviving): 2
CXCL12; CD45(−) bone marrow stromal cells
  induction of CXCL12: greater than 4 fold
CXCL12; bone marrow SKL cells
  induction in RNA expression of CXCL12: 3 fold
Bone marrow
  increase in number of bone marrow derived colonies: approximately 50%
C57BL/6J mice [2]
  serum ALT values vs control: lower
NSG mice
  increase of homed human cells in recipient mouse bone marrow: ~2 fold
FVB male mice; 22 days of study
  change from baseline weight vs control: greater weight at all time points
FVB male mice; Baseline
  Colon length: 8.4 ± 0.2 cm
  Wt @ sacrifice: 25.9 ± 0.7 gm
FVB male mice; Day 8
  Colon length: 6.6 ± 0.1 cm
  Wt @ sacrifice: 26.4 ± 0.5 gm
FVB male mice; Day 15
  Colon length: 7.5 ± 0.1 cm
  Wt @ sacrifice: 25.2 ± 0.9 gm
FVB male mice; Day 22
  Colon length: 8.6 ± 0.3 cm
  Wt @ sacrifice: 28.2 ± 0.5 gm
FVB male mice; colonoscopy days 8, 11 and 15
  share of ulcer formation prevented: two-thirds
FVB male mice; day 15
  reduction of length of ulcerated mucosa vs control: 61%
FVB male mice; day 15, N=6 mice, control 4.48
  average length of ulcerated mucosa: 1.74 mm per colon section
FVB male mice; days 8, 11 and 15
  MEICS score vs control: significantly less colitis activity
C57BL/6J female mice; 11Gy, any of the three dosing schedules
  longer survival on average than vehicle control: 1 to 2 days
C57BL/6J female mice; 11Gy, daily for 7 doses
  longer survival than vehicle control: 48 h
C57BL/6J female mice; Day 0, daily for 7 doses
  number of mice surviving: 3
C57BL/6J female mice; Day 5, daily for 7 doses
  number of mice surviving: 3
C57BL/6J female mice; Day 6, daily for 7 doses
  number of mice surviving: 3
C57BL/6J female mice; Day 7, daily for 7 doses
  number of mice surviving: 3
C57BL/6J female mice; Day 8, daily for 7 doses
  number of mice surviving: 3
C57BL/6J female mice; Day 9, daily for 7 doses
  number of mice surviving: 3
C57BL/6J female mice; Day 10, daily for 7 doses
  number of mice surviving: 3
C57BL/6J female mice; Day 12, daily for 7 doses
  number of mice surviving: 2
C57BL/6J female mice; Day 13, daily for 7 doses
  number of mice surviving: 2
C57BL/6J female mice; Day 14, daily for 7 doses
  number of mice surviving: 1
C57BL/6J female mice; Day 15, daily for 7 doses
  number of mice surviving: 0
C57BL/6J female mice; Day 25, 7 Gy, wrapped cell reads Looks Healthy
  appearance of mice: Looks
mice; FIG. 88
  increase of homed cells in recipient bone marrow: 3 fold
mice; FIG. 90
  increase of homed cells in recipient bone marrow: 2 fold
mice; FIG. 140
  increase of homed donor cells in recipient bone marrow: approximately 2.5 fold
[3]
  luciferase activity, in words: increase luciferase activity
[4]
  mouse weight: no evidence for SW033291 reducing mouse weight
